In publication PMC12344774, “Ferrocenyl Quinoline-Benzimidazole Hybrids: A Multistage Strategy to Combat Drug-Resistant Malaria” (Inorganic Chemistry, 2025):
Like-named read-outs stand apart in the source and are kept apart here.

Experiments:
PfK1 = experiment: microbe, parasite or virus in culture; format: cell-based, Plasmodium falciparum; conditions: read-out: PfK1 IC50 ± SEM
Text: (§1) This side chain is also present in the well-known antiplasmodial agent, FQ.
(§2) Test samples were screened in technical duplicate or triplicate, for three or four biological replicates, for their in vitro blood stage antiplasmodial activity against both the drug-sensitive (NF54) and multidrug-resistant (K1) strains of . Continuous in vitro cultures of asexual erythrocyte stages of were maintained using a modified method of Trager and Jensen. A quantitative assessment of the in vitro antiplasmodial activity was determined via the parasite lactate dehydrogenase (pLDH) assay, using a modified method described by Makler and Hinrichs.
(§3) The test samples were prepared to a 20 mg/mL stock solution in 100% DMSO. Stock solutions were stored at −20 °C. Further dilutions were prepared in complete medium on the day of the experiment. […] Chloroquine diphosphate (CQDP) was used as the reference drug in all experiments. Test samples were tested at a starting concentration of either 100 μg/mL, 50 μg/mL, 10 μg/mL, or 1 μg/mL, which was then serially diluted 2-fold, in complete medium, to give 10 concentrations. The same dilution technique was used for all samples. […] The IC50 values were obtained from full dose–response curves, using a nonlinear dose–response curve fitting analysis, via GraphPad Prism v.5 software.

PfNF54 = experiment: In vitro ABS antiplasmodial activity, pLDH assay, drug-sensitive NF54; format: cell-based, Plasmodium falciparum; conditions: read-out: PfNF54 IC50 ± SEM
Text: as §1, §2, §3

β-hematin formation = experiment: NP-40 detergent-mediated β-hematin formation inhibition assay (cell-free); format: biochemical; conditions: NP-40, pH 4.8, 5 h, 37 °C, read-out: β-hematin formation inhibition IC50 ± SEM
Text: The ability of a compound to inhibit Hz formation can be predicted using the biomimetic cell-free NP40 detergent-mediated β-hematin formation inhibition assay. , This assay mimics the conditions in the acidic DV of the parasite and relies on the binding of pyridine to uncrystallized free heme to detect the inhibition of β-hematin formation using UV–vis spectroscopy (with absorbance measured at 405 nm). , Consequently, the ability of the ferrocenyl quinoline-benzimidazole hybrids (C1–C5) to inhibit β-hematin (synthetic Hz) formation was investigated as a potential mechanism of antiplasmodial action.
The β-hematin formation inhibition assay was modified from the method reported by Sandlin et al. , Stock solutions of the respective test compounds were prepared to 10 mM, in 100% DMSO, with the exception of CQ (used in the salt form, CQDP), which was prepared in Milli-Q water. […] NP-40 is a detergent used to mediate the formation of β-hematin. The solution in column 12 was then serially diluted 2-fold, through to column 2, to give a total of 11 concentrations. Column 1 contained 0 μM of the test compound and thus served as a blank. […] A 178.8 μL aliquot of this hematin suspension was added to 20.0 mL of a 2 M acetate buffer (pH = 4.8) and 100 μL of this solution added to each well. The plates were then covered and incubated for 5 h, at 37 °C. The assay was analyzed using the pyridine-ferrochrome method developed by Ncokazi and Egan. A solution containing water/acetone/2 M HEPES buffer (pH 7.4)/pyridine, in a v/v ratio of 2/2/1/5, was prepared and 32 μL was added to all wells, followed by 60 μL of acetone. The absorbance values were then measured at 405 nm, the results plotted using GraphPad Prism (v5), and the IC50 values obtained using a sigmoidal dose–response curve fitting analysis.

[1] = tested on: Mature gametocytes (>95% stage V); experiment: microbe, parasite or virus in culture; format: cell-based, Plasmodium falciparum; conditions: for % Inhibition, mature gametocytes: maximum inhibition at 10 μM, 48 h drug pressure; for inhibition at 5 µM: Plasmodium falciparum, read-out: % Inhibition, mature gametocytes (controls)
Description: (§4) Compounds are diluted 3-fold in at least a 9-point serial dilution series starting at 20 μM, with a nonlethal DMSO concentration of <0.1% maintained. Luciferase activity was determined in 30 μL parasite lysates by adding 30 μL luciferin substrate (Promega Luciferase Assay System) at room temperature and detection of resultant bioluminescence at an integration constant of 10 s with the GloMax-Multi + Detection System with Instinct Software. Methylene blue (5 μM) and the clinical antimalarial candidate MMV390048 (5 μM) were used as controls. IC50 values were determined in GraphPad Prism using a nonlinear regression fit with variable slope (4-parameter) on the dose–response data.
(§5) Assay quality parameters are evaluated for each assay, including Z′-factors (data quality compared to reproducibility using signal, noise, and background parameters; accepted metric >0.6), regression (accepted r 2 > 0.9); >80% viable parasites (top plateau); <20% killed parasites (bottom plateau), hill slope ∼1.

[2] = tested on: Immature gametocytes (>90% stage II/III); experiment: microbe, parasite or virus in culture; format: cell-based, Plasmodium falciparum; conditions: for % Inhibition, immature gametocytes: maximum inhibition at 10 μM, 48 h drug pressure; for inhibition at 5 µM: Plasmodium falciparum, read-out: % Inhibition, immature gametocytes (controls)
Description: as §4, §5

[3] = Hydroxyl radical (ROS) generation with H2O2, DCFH2 fluorescent probe; conditions: 200 μM in 1:4 DMSO/PBS, H2O2 and H2DCF added, 30 min
Text: Fluorogenic redox-sensitive probes are often employed to measure the presence of ROS, due to their low cost, ease of use, and nontoxicity, allowing for spectrofluorimetric measurements. 2′,7′-Dichlorodihydrofluorescein diacetate (DCFH2-DA) is the most widely used fluorogenic probe. Cleavage of the acetate groups, through alkaline hydrolysis, generates 2′,7′-dichlorodihydrofluorescein (DCFH2), which in the presence of oxidants, yields the highly fluorescent 2′,7′-dichlorofluorescein (DCF, λem = 523 nm). The DCFH2 probe reacts with an array of oxidants, making it an ideal indicator of general oxidative stress. […] The presence of these radicals was confirmed by monitoring the fluorescence over time (Figure ). […].
Stock solutions of DCFH2-DA were prepared to 1 mM in 100% DMSO and stored at −20 °C in the dark until use. The deacetylation of DCFH2-DA involved adding 2 μL of a 0.5 M NaOH solution to 200 μL of the 1 mM DCFH2-DA stock solution. The solution was mixed for 30 min, in the dark, at room temperature and then quenched with 800 μL of PBS buffer to obtain a 200 μM H2DCF 1:4 DMSO/PBS solution mixture.
[…]. The fluorometer was blanked using a 1:4 DMSO/PBS solution mixture. To identify hydroxyl radical production, 2 μL of a 0.5% H2O2 solution was added to 900 μL of the 200 μM complex solution in a cuvette at 25 °C. 100 μL of the prepared H2DCF solution (200 μM) was quickly added, and the readings recorded at 530 nm (emission wavelength), at 2 min intervals, over 30 min.

CHO cell line [4] = tested on: CHO cell line
Description: (§6) The samples were tested over 48 h against the Chinese hamster ovarian (CHO) cell line to determine general cytotoxicity. […] Quantitative assessment of toxic activity in vitro was determined via the MTT assay using the method described. Cell viability was determined colorimetrically using the breakdown of a dye by enzymes of the electron transport chain, taking place in the mitochondria of metabolically active living cells, as a marker for survival.
(§7) Compounds were tested in triplicate on a single occasion against these cells using the MTT assay. The test samples were prepared to a 10 mM stock solution, in 100% DMSO, and stored at −20 °C until use. Samples were tested as a suspension if not completely dissolved. Further dilutions to the desired starting concentration were freshly prepared in growth media at the start of the experiment.
(§8) Cells were plated to a density of 10^5 cells/well in 96-well plates and allowed to attach for 24 h. […] After 44 h MTT was added, and the plates were read 4 h later at 540 nm on a spectrophotometer following the addition of 100 μL of DMSO and gentle plate-shaking to solubilize and visualize the dye. Survival was plotted against concentration, and the IC50 values were obtained using a nonlinear dose–response curve fitting analysis via the Dotmatics software platform.

[5] = Cyclic voltammetry of the ferrocene/ferrocenium couple; format: physicochemical; conditions: for Reversibility of the ferrocene/ferrocenium couple: DCM/0.1 M TBAP system; for Ipc/Ipa / ΔE / Anodic peak potential Epa / Cathodic peak potential Epc / Half-wave potential E1/2: scan rate 100 mV/s, CH2Cl2, 0.1 M TBAP; for Anodic peak potential Epa / Cathodic peak potential Epc / Half-wave potential E1/2: vs Ag/AgCl
Description: It has been proposed that the oxidation of ferrocene (Fe(C5H5)2) to the ferrocenium cation (Fe(C5H5)2 ^+) is a reversible one-electron transfer process. […] This prompted the investigation into the electrochemical properties of the Fe(C5H5)2/Fe(C5H5)2 ^+ couple in complexes C1–C5, using cyclic voltammetry. FQ was used as the reference, as it is considered the benchmark for all newly developed ferrocenyl-based antiplasmodials.
Nuclear magnetic resonance (NMR) spectra were recorded on a Bruker XR600 MHz spectrometer (^1H at 599.95 MHz and ^13C{^1H} at 151.0 MHz), a Bruker […] (^1H at 400.22 MHz and ^13C{^1H} at 100.65 MHz), or a Varian Mercury 300 (^1H at 300.08 MHz) spectrometer. These were equipped with a Bruker Biospin GmbH casing and sample injector at 30 °C and tetramethylsilane (TMS) was used as the internal standard. Coupling constants are reported in Hz and chemical shifts are reported in ppm relative to residual solvent signals. Infrared (IR) spectroscopy was performed on a PerkinElmer Spectrum 100 FT-IR spectrometer, using attenuated total reflectance (ATR), with vibrations measured in units of cm^–1. Cyclic voltammetric measurements were carried out at ambient temperature under an inert argon atmosphere using a three-electrode system on a BASi Epsilon Eclipse potentiostat/galvanostat electrochemical workstation. The C-3 cell stand, equipped with a glassy carbon working electrode, Ag/AgCl (saturated NaCl) reference electrode, and a Pt wire auxiliary electrode were used to carry out electrochemical measurements. All experiments were carried out in anhydrous dichloromethane containing 0.10 M tetra-n-butylammonium perchlorate (TBAP) as the supporting electrolyte.

CHO cell line [6] = experiment: Cytotoxicity, MTT assay; conditions: selectivity index
Description: as §6, §7, §8

NF54 = conditions: drug-sensitive NF54; footnote e: Results from ref (number not given); read-out: PfNF54 IC50 ± SEM; cited from earlier work
K1 = conditions: MDR K1; footnote e: Results from ref (number not given); read-out: PfK1 IC50 ± SEM; cited from earlier work
[7] = MDR K1, ABS, pLDH, 48 h incubation
[8] = drug-sensitive NF54, ABS, pLDH, 48 h incubation

CCN(CC)CCCC(C)Nc1ccnc2cc(Cl)ccc12 (stereo not shown) [CQ, chloroquine, reference compound]
IC50 (PfK1; Plasmodium falciparum, 48 h): 170 ± 10 nM
IC50 (PfNF54; Plasmodium falciparum, NF54, 48 h): 15 ± 1 nM
IC50 (β-hematin formation): 11 ± 0.87 µM

Cc1ccc2c(c1)nc(-[c-]1cccc1)n2CCNCCNc1ccnc2cc(Cl)ccc12.[Fe+2].c1cc[cH-]c1 [Complex C2, N1-(7-Chloroquinolin-4-yl)-N2-(2-(5-methyl-2-ferrocenyl-1H-benzo[d]imidazole-1-yl)ethyl)ethane-1,2-diamine]
IC50 (PfK1; [7]): 9.4 ± 0.9 nM
% Inhibition, mature gametocytes [1]: 32%
% Inhibition, immature gametocytes [2]: 75%
Hydroxyl radical generation (fluorescence intensity over time) [3]: no changes in the fluorescence intensity
CC50 (CHO cell line [4]): > 50 µM
IC50 (PfNF54; [8]): 38 ± 2 nM
Reversibility of the ferrocene/ferrocenium couple [5]: chemically and electrochemically reversible
Ipc/Ipa [5]: 1.03
ΔE [5]: 0.133 V
Anodic peak potential Epa [5]: 0.651 V
Cathodic peak potential Epc [5]: 0.518 V
Half-wave potential E1/2 [5]: 0.584 V
IC50 (β-hematin formation): 4.47 µM

Cc1ccc2c(c1)nc(-[c-]1cccc1CN(C)C)n2CCNCCNc1ccnc2cc(Cl)ccc12.[Fe+2].c1cc[cH-]c1 (stereo not shown) [Complex C4, N1-(7-Chloroquinolin-4-yl)-N2-(2-(5-methyl-2-(2-N,N-dimethylaminomethyl)ferrocenyl-1H-benzo[d]imidazole-1-yl)ethyl)ethane-1,2-diamine]
SI (CC50 CHO/IC50 NF54) (CHO cell line [6]): 784.2
IC50 (PfK1; [7]): 170 ± 20 nM
% Inhibition, mature gametocytes [1]: 72%
% Inhibition, immature gametocytes [2]: 59%
Hydroxyl radical generation (fluorescence intensity over time) [3]: produce hydroxyl radicals
CC50 (CHO cell line [4]): 29.8 ± 0.5 µM
IC50 (PfNF54; [8]): 38 ± 3 nM
Reversibility of the ferrocene/ferrocenium couple [5]: chemically and electrochemically irreversible
Anodic peak potential Epa [5]: 0.662 V
IC50 (β-hematin formation): 4.9 µM

Cc1ccc2c(c1)nc(-[c-]1cccc1)n2CCN(CCNc1ccnc2cc(Cl)ccc12)[c-]1cccc1.[Fe+2].[Fe+2].c1cc[cH-]c1.c1cc[cH-]c1 [Complex C5, N1-Ferrocenyl-N2-(7-Chloroquinolin-4-yl)-N1-(2-(5-methyl-2-ferrocenyl-1H-benzo[d]imidazole-1-yl)ethyl)ethane-1,2-diamine]
IC50 (PfK1; [7]): 14500 ± 1140 nM
% Inhibition, mature gametocytes [1]: 32%
% Inhibition, immature gametocytes [2]: 60%
Hydroxyl radical generation (fluorescence intensity over time) [3]: no changes in the fluorescence intensity
CC50 (CHO cell line [4]): > 50 µM
IC50 (PfNF54; [8]): 1510 ± 140 nM
Reversibility of the ferrocene/ferrocenium couple [5]: chemically and electrochemically reversible
Ipc/Ipa [5]: 1.04
ΔE [5]: 0.190 V
Anodic peak potential Epa [5]: 0.632 V
Cathodic peak potential Epc [5]: 0.442 V
Half-wave potential E1/2 [5]: 0.537 V
IC50 (β-hematin formation): 37.7 ± 0.77 µM

CN(C)Cc1ccc[c-]1CNc1ccnc2cc(Cl)ccc12.[Fe+2].c1cc[cH-]c1 (stereo not shown) [FQ, ferroquine, reference compound]
Hydroxyl radical generation (fluorescence intensity over time) [3]: generate hydroxyl radicals
Reversibility of the ferrocene/ferrocenium couple [5]: chemically and electrochemically reversible
Ipc/Ipa [5]: 1.00
ΔE [5]: 0.125 V
Anodic peak potential Epa [5]: 0.613 V
Cathodic peak potential Epc [5]: 0.488 V
Half-wave potential E1/2 [5]: 0.550 V
IC50 (NF54): 20 ± 3 nM
IC50 (K1): 23.9 ± 0.2 nM

[Fe+2].c1cc[cH-]c1.c1cc[cH-]c1 [Ferrocene, reference compound]
Hydroxyl radical generation (fluorescence intensity over time) [3]: generate hydroxyl radicals
Ipc/Ipa [5]: 1.05
ΔE [5]: 0.171 V
Anodic peak potential Epa [5]: 0.543 V
Cathodic peak potential Epc [5]: 0.372 V
Half-wave potential E1/2 [5]: 0.458 V

CS(=O)(=O)c1ccc(-c2cnc(N)c(-c3ccc(C(F)(F)F)nc3)c2)cc1 [MMV390048, reference compound]
inhibition at 5 µM [1]: > 93%
inhibition at 5 µM [2]: > 77%

CN(C)c1ccc2nc3ccc(=[N+](C)C)cc-3sc2c1 [Methylene blue, reference compound]
inhibition at 5 µM [1]: 100%
inhibition at 5 µM [2]: > 97%
